Test results reported in US7947668B2, “Aminoalkyl sterol compounds having an anti-tumoral and neuroprotective activity” (Institut National de la Sante et de la Recherche Medicale, priority 2002, dated 2011).

Assays:
[1] = tested on: TS/A tumors implanted onto BALB/c mice; assay: Growth tests on tumors implanted onto BALB/c mice; type: in vivo; conditions: for tumor growth relative to the control mice: intradermal in the region of the tumor
Method: The tumors are implanted in the following manner: 1×10^6 TS/A cells are inoculated by intradermal injection into the right side of the abdomen of 5-6-week-old BALB/c mice (Janvier breeding station, Le Genest Saint Isle).
The test molecule is the one corresponding to example 9; it is injected on the third day intradermally in the region of the tumor; the result is shown in FIG. 7.
The same experiment as that described above was repeated, changing the area of injection of the molecule corresponding to example 9; the injection is performed on the third day after implantation of the tumor, intradermally into the controlateral position relative to said implantation. […] This illustrates the efficacy of the treatment for an administration of the test compound remote from the tumor. The results obtained are represented by the curves in FIG. 17.

[2] = tested on: U937 cells expressing RCPG-HA; assay: Overexpression of a membrane receptor in the U937 tumoral cell line; type: cell-based, human; conditions: 10 nM, 12 hours, 48 hours after transfection
Method: U937 cells were cultured in an “RPMI 1640” medium sold by the company “Gibco BRL”. A plasmid coding for an […] membrane receptor belonging to the superfamily of protein G-coupled receptors and containing an HA label is generated.
The U937 cells expressing the receptors are generated by transfection using the “lipofectamine” reagent according to the manufacturer's instructions.
48 hours after transfection, the transfected cells were treated with 10 nM of compound according to example 9 for 12 hours.
These cells were fixed in order to be examined by fluorescence microscopy.

U-937 cells = assay: Production of IL-12p70 and IL-10 by the dendritic cells (ELISA); type: cell-based, human
Method: The culture supernatants are frozen at a temperature of −80° C. until the time of testing for the presence of cytokines. The presence of IL-12p70 and IL-10 is measured using ELISA kits obtained from “Endogen” (Woburn, Mass., USA).
This phenomenon continues for the two weeks of treatment.

SMILES: CC(C)CCC[C@@H](C)[C@H]1CC[C@H]2[C@@H]3C[C@@H](NCCc4c[nH]cn4)[C@@]4(O)C[C@@H](O)CC[C@]4(C)[C@H]3CC[C@]12C [Example 9, cholestane-3β,5α-diol-6β-N-[2-ethylamino(1H-imidazol-4-yl)]]
- tumor growth relative to the control mice ([1]; 8.5 ng/g of mouse, third day): slowing-down effect
- tumor growth relative to the control mice ([1]; 1.7 μg/g of mouse, third day): no tumor is detectable
- tumor growth relative to the control mice, administration remote from the tumor ([1]; 1.7 μg/g of mouse, intradermal, controlateral position, third day): slowing-down of the tumoral growth
- peripheral lymphoid system, activation of the immune system ([1]; 1.7 μg/g, whether or not a tumor has been implanted): hyperplasia of the peripheral lymphoid system is observed
- necrosis in the area of injection (anatomopathology) ([1]; intradermal injection): no trace of necrosis is observable
- expression of RCPG-HA membrane receptor (immunofluorescence) [2]: expression of a membrane receptor of RCPG type
- production of the p70 subunit of IL-12 (U-937 cells; from 36 hours after the start of the treatment, continues for the two weeks of treatment): stimulates the production of the p70 subunit of IL-12
- transcription/production of IL-10 (U-937 cells; treatments extending over a period of two weeks): does not stimulate the transcription of IL-10
